Patent publication US8617562B2, “FOXM1 peptides and immunogenic compositions containing them” (OncoTherapy Science, Inc., priority 2009, dated 2013)
Entries after “also recorded” stand apart in the source; their conditions may differ. Square brackets hold non-standard residues; d marks the D form. Ends that are not written are not given here.

Columns and labels:
[1] = system: peptide-pulsed TISI cells; test: IFN-gamma ELISPOT assay on CTLs induced with FOXM1 peptides; format: cell-based, human; conditions: target cells pulsed with the peptide vs not pulsed, day 21 after 3rd stimulation
Excerpt: Monocyte-derived dendritic cells (DCs) were used as antigen-presenting cells to induce cytotoxic T lymphocyte (CTL) responses against peptides presented on human leukocyte antigen (HLA). DCs were generated in vitro as described elsewhere (Nakahara S et al., Cancer Res 2003 Jul. 15, 63(14): 4112-8). Specifically, peripheral blood mononuclear cells (PBMCs) isolated from a normal volunteer (HLA-A*2402 positive) by Ficoll-Plaque (Pharmacia) solution were separated by adherence to a plastic tissue culture dish (Becton Dickinson) so as to enrich them as the monocyte fraction. The monocyte-enriched population was cultured in the presence of 1000 U/ml of granulocyte-macrophage colony-stimulating factor (R&D System) and 1000 U/ml of interleukin (IL)-4 (R&D System) in AIM-V Medium (Invitrogen) containing 2% heat-inactivated autologous serum (AS). After 7 days of culture, the cytokine-induced DCs were pulsed with 20 micro-g/ml of each of the synthesized peptides in the presence of 3 micro-g/ml of beta2-microglobulin for 3 hrs at 37 degrees C. in AIM-V Medium. The generated cells appeared to express DC-associated molecules, such as CD80, CD83, CD86 and HLA class II, on their cell surfaces (data not shown). These peptide-pulsed DCs were then inactivated by X-irradiation (20 Gy) and mixed at a 1:20 ratio with autologous CD8+ T cells, obtained by positive selection with CD8 Positive Isolation Kit (Dynal). These cultures were set up in 48-well plates (Corning); each well contained 1.5×10^4 peptide-pulsed DCs, 3×10^5 CD8+ T cells and 10 ng/ml of IL-7 (R&D System) in 0.5 ml of AIM-V/2% AS medium. Three days later, these cultures were supplemented with IL-2 (CHIRON) to a final concentration of 20 IU/ml. On days 7 and 14, the T cells were further stimulated with the autologous peptide-pulsed DCs. The DCs were prepared each time by the same way described above. CTLs were tested against peptide-pulsed TISI cells after the 3rd round of peptide stimulation on day 21 (Tanaka H et al., Br J Cancer 2001 Jan. 5, 84(1): 94-9; Umano Y et al., Br J Cancer 2001 Apr. 20, 84(8): 1052-7; Uchida N et al., Clin Cancer Res 2004 Dec. 15, 10(24): 8577-86; Watanabe T et al., Cancer Sci 2005 August, 96(8): 498-506; Suda T et al., Cancer Sci 2006 May, 97(5): 411-9).
(§1) Specifically, peptide-pulsed TISI (1×10^4 cells/well) was prepared as stimulator cells. Cultured cells in 48 wells were used as responder cells. IFN-gamma ELISPOT assay and IFN-gamma ELISA assay were performed under manufacture procedure.
CTLs for those peptides derived from FOXM1 were generated according to the protocols as described in “Materials and Methods”.

[2] = system: peptide-pulsed TISI cells; test: IFN-gamma ELISA assay of CTL clones established by limiting dilution; format: cell-based, human; conditions: peptide-pulsed target cells vs not pulsed
Protocol: The dilutions were made to have 0.3, 1, and 3 CTLs/well in 96 round-bottomed micro titer plate (Nalge Nunc International). CTLs were cultured with 1×10^4 cells/well of 2 kinds of human B-lymphoblastoid cell lines, 30 ng/ml of anti-CD3 antibody, and 125 U/ml of IL-2 in a total of […] of AIM-V Medium containing 5% AS. 50 micro-1/well of IL-2 were added to the medium 10 days later so to reach a final concentration of 125 U/ml IL-2. CTL activity was tested on the 14th day, and CTL clones were expanded using the same method as described above (Uchida N et al., Clin Cancer Res 2004 Dec. 15, 10(24): 8577-86; Suda T et al., Cancer Sci 2006 May, 97(5): 411-9; Watanabe T et al., Cancer Sci 2005 August, 96(8): 498-506).
as §1
(§2) CTL activity of those CTL lines was determined by IFN-gamma ELISA assay (FIGS. 2a-d). […] Furthermore, CTL clones were established by limiting dilution from the CTL lines, and IFN-gamma production from CTL clones against target cells pulsed peptide was determined by IFN-gamma ELISA assay.

[3] = system: peptide-pulsed TISI cells; test: IFN-gamma ELISA assay of CTL lines stimulated with FOXM1 peptides; format: cell-based, human; conditions: target cells pulsed with corresponding peptide vs without peptide pulse
Protocol: CTLs were expanded in culture using the method similar to the one described by Riddell et al. (Walter E A et al., N Engl J Med 1995 Oct. 19, 333(16): 1038-44; Riddell S R et al., Nat Med 1996 February, 2(2): 216-23). A total of 5×10^4 CTLs were suspended in 25 ml of AIM-V/5% AS medium with 2 kinds of human B-lymphoblastoid cell lines, inactivated by Mitomycin C, in the presence of 40 ng/ml of anti-CD3 monoclonal antibody (Pharmingen). One day after initiating the cultures, 120 IU/ml of IL-2 were added to the cultures. The cultures were fed with fresh AIM-V/5% AS medium containing 30 IU/ml of IL-2 on days 5, 8 and 11 (Tanaka H et al., Br J Cancer 2001 Jan. 5, 84(1): 94-9; Umano Y et al., Br J Cancer 2001 Apr. 20, 84(8): 1052-7; Uchida N et al., Clin Cancer Res 2004 Dec. 15, 10(24): 8577-86; Watanabe T et al., Cancer Sci 2005 August, 96(8): 498-506; Suda T et al., Cancer Sci 2006 May, 97(5): 411-9).
as §1, §2

[4] = system: COS7 cells transfected with FOXM1 and HLA-A*2402; test: Specific CTL activity against target cells exogenously expressing FOXM1 and HLA-A*2402; format: cell-based, African green monkey
Excerpt: The cDNA encoding an open reading frame of target genes or HLA-A*2402 was amplified by PCR. The PCR-amplified products were cloned into pCAGGS vector. The plasmids were transfected into COST, which is the target genes and HLA-A24 negative cell line, using lipofectamine 2000 (Invitrogen) according to the manufacturer's recommended procedures. After 2 days from transfection, the transfected cells were harvested with versene (Invitrogen) and used as the target cells (5×10^4 cells/well) for CTL activity assay.
The established CTL lines and clones raised against these peptides were examined for their ability to recognize target cells that endogenously express FOXM1 and HLA-A*2402 gene. […] COS7 cells transfected with either full length of FOXM1 genes or HLA-A*2402 were prepared as controls.

| Substance | IFN-gamma production of peptide-induced CTLs compared with the control [1] | IFN-gamma production of CTL lines compared with the control [3] | further results |
| --- | --- | --- | --- |
| VLQPsVKVPL (VLQP[code s]VKVPL) [SEQ ID NO: 30] | potent IFN-gamma production | – | – |
| KFPAGIKII [SEQ ID NO: 8] | potent IFN-gamma production | – | – |
| IYTWIEDHF [SEQ ID NO: 2] | potent IFN-gamma production | potent IFN-gamma production | IFN-gamma production of CTL clones compared with the control ([2]; listed as FOXM1-A24-9-262): potent IFN-gamma production; specific CTL activity against COS7 cells transfected with both FOXM1 and HLA-A*2402 ([4]; CTLs raised by the peptide as effector cells, listed as FOXM1-A24-9-262): potent CTL activity; also recorded: specific CTL activity; specific CTL activity against control COS7 cells expressing either HLA-A*2402 or FOXM1 ([4]; controls transfected with only one gene): no significant specific CTL activity |
| LTLDqVFKPL (LTLD[code q]VFKPL) [SEQ ID NO: 25] | potent IFN-gamma production | potent IFN-gamma production | – |
| RNMTIKTEL [SEQ ID NO: 7] | potent IFN-gamma production | – | – |
| RYLTLDQVF [SEQ ID NO: 1] | – | – | IFN-gamma production of peptide-induced CTLs compared with the control ([1]; listed as FOXM1-A24-9-316): not shown specific IFN-gamma production; also recorded: typical negative data of CTL response |
| SYMAmIQFAI (SYMA[code m]IQFAI) [SEQ ID NO: 16] | potent IFN-gamma production | potent IFN-gamma production | IFN-gamma production of CTL clones compared with the control ([2]; listed as FOXM1-A24-10-240): potent IFN-gamma production |
| PYSYmAMIQF (PYSY[code m]AMIQF) [SEQ ID NO: 31] | potent IFN-gamma production | potent IFN-gamma production | IFN-gamma production of CTL clones compared with the control ([2]; listed as FOXM1-A24-10-238): potent IFN-gamma production |
